Reference: ChEMBL document CHEMBL4507276 (2021)

Tests used:
[1] = molecular target: Tyrosine-protein kinase ABL1 (Homo sapiens) (UniProt P00519); settings: Compound concentration 1000.0 nM
[2] = molecular target: T1, Serine/threonine-protein kinase Sgk1 (Homo sapiens) (UniProt O00141); experiment: SGK Invitrogen selectivity data (BI); settings: Compound concentration 3.0 uM
T1 sequence (whole entry): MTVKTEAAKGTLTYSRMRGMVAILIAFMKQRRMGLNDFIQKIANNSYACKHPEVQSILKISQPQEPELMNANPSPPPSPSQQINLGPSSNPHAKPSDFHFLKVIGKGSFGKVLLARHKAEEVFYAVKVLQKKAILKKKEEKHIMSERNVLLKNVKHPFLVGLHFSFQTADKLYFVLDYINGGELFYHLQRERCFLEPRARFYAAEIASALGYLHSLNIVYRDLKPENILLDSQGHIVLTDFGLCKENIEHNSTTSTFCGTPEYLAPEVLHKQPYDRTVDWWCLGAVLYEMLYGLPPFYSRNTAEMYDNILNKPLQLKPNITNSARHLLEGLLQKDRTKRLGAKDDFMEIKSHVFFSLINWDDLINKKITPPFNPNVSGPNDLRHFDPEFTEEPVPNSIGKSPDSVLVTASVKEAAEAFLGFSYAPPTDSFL

[3] = molecular target: T2, TGF-beta receptor type-1 (Homo sapiens) (UniProt P36897); experiment: TGFBR1 Invitrogen selectivity data (BI); settings: Compound concentration 3.0 uM
T2 sequence (whole entry): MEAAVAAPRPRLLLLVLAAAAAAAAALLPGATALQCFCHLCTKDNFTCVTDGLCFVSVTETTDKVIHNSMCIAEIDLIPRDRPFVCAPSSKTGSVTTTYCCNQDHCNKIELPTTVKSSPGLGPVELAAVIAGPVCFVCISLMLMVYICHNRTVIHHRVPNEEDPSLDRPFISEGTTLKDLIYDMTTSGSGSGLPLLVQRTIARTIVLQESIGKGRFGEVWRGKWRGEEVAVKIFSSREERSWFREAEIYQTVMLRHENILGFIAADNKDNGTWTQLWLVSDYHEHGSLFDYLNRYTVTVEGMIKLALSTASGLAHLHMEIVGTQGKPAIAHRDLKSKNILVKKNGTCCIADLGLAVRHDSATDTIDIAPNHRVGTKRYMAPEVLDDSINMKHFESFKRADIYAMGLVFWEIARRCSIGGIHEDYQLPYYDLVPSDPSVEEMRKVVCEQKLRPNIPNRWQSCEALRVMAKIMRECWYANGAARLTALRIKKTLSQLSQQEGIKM

[4] = molecular target: Calcium/calmodulin-dependent protein kinase type II subunit delta (Homo sapiens) (UniProt Q13557); experiment: CAMK2D Invitrogen selectivity data (BI); settings: Compound concentration 3.0 uM
[5] = molecular target: MAP kinase-interacting serine/threonine-protein kinase 2 (Homo sapiens) (UniProt Q9HBH9); experiment: MKNK2 (MNK2) Invitrogen selectivity data (BI); settings: Compound concentration 3.0 uM
[6] = molecular target: Small conductance calcium-activated potassium channel protein 1 (Rattus norvegicus) (UniProt P70606); experiment: K+/CA+/R Cerep selectivity data (BI); settings: Compound concentration 20.0 uM
[7] = molecular target: Protein kinase C delta type (Homo sapiens) (UniProt Q05655); experiment: PRKCD Invitrogen selectivity data (BI); settings: Compound concentration 3.0 uM
[8] = molecular target: Prostaglandin G/H synthase 1 (Homo sapiens) (UniProt P23219); experiment: COX1_HU Cerep selectivity data (BI); settings: Compound concentration 20.0 uM
[9] = molecular target: Chloride channel protein 1 (Rattus norvegicus) (UniProt P35524); experiment: CL-CHANNEL/R Cerep selectivity data (BI); settings: Compound concentration 20.0 uM
[10] = molecular target: T3, cGMP-dependent protein kinase 2 (Homo sapiens) (UniProt Q13237); experiment: PRKG2 Invitrogen selectivity data (BI); settings: Compound concentration 3.0 uM
T3 sequence (whole entry): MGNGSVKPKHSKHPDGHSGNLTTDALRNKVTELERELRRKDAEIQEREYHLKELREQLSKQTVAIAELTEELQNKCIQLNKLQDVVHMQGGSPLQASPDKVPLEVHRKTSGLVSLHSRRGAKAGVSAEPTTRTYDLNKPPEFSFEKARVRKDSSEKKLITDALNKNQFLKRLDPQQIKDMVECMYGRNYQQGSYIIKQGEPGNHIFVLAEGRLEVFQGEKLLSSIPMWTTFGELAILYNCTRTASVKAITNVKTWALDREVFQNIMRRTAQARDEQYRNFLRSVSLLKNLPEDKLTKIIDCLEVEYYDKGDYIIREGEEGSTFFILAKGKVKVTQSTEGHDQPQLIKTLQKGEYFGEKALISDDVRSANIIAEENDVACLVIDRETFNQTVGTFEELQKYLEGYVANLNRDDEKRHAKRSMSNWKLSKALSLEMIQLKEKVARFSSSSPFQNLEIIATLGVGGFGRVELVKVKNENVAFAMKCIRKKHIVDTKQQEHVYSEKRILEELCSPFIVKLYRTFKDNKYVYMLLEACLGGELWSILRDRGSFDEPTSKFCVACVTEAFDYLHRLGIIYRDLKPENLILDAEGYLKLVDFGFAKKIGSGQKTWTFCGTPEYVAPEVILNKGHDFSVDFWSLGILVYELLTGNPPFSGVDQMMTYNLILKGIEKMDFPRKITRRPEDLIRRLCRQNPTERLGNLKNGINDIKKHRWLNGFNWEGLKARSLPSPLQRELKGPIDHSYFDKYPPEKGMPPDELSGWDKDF

[11] = molecular target: Death-associated protein kinase 3 (Homo sapiens) (UniProt O43293); experiment: DAPK3 Invitrogen selectivity data (BI); settings: Compound concentration 3.0 uM
[12] = molecular target: 5-hydroxytryptamine receptor 6 (Homo sapiens) (UniProt P50406); experiment: 5HT6/H Cerep selectivity data (BI); settings: Compound concentration 20.0 uM
[13] = molecular target: Sigma non-opioid intracellular receptor 1 (Homo sapiens) (UniProt Q99720); experiment: SIGMA/NS Cerep selectivity data (BI); settings: filed as agonist, Compound concentration 20.0 uM
[14] = molecular target: Platelet-activating factor receptor (Homo sapiens) (UniProt P25105); experiment: PAF Cerep selectivity data (BI); settings: filed as agonist, Compound concentration 20.0 uM

Measured: residual activity

Chain of Prostaglandin G/H synthase 1 (Homo sapiens) (P23219 whole entry): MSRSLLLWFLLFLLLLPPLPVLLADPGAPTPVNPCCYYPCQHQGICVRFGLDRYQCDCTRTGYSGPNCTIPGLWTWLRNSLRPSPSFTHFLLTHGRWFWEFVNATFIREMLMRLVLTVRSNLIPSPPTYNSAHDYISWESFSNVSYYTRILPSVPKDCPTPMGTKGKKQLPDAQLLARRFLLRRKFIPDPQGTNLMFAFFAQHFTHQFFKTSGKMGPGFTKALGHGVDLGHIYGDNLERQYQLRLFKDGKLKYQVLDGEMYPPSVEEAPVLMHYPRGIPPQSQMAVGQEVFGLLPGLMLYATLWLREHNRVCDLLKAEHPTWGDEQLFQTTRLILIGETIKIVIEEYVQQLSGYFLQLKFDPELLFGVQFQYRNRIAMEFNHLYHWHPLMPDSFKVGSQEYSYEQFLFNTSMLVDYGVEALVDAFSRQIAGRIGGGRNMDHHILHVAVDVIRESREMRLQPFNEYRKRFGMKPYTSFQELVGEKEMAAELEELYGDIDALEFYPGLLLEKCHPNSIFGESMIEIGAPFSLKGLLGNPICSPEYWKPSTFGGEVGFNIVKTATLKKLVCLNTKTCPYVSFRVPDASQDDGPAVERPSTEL
Chain of Platelet-activating factor receptor (Homo sapiens) (P25105 whole entry): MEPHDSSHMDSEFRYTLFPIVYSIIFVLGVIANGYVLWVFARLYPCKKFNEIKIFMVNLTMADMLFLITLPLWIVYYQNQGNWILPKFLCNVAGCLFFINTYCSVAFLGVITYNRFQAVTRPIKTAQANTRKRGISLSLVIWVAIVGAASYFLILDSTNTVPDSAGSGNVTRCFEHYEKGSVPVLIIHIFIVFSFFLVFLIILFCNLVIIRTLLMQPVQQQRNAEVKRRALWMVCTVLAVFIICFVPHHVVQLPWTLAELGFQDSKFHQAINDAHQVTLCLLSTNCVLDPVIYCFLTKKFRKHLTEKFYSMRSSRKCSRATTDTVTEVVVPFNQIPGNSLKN
Chain of Chloride channel protein 1 (Rattus norvegicus) (P35524 whole entry): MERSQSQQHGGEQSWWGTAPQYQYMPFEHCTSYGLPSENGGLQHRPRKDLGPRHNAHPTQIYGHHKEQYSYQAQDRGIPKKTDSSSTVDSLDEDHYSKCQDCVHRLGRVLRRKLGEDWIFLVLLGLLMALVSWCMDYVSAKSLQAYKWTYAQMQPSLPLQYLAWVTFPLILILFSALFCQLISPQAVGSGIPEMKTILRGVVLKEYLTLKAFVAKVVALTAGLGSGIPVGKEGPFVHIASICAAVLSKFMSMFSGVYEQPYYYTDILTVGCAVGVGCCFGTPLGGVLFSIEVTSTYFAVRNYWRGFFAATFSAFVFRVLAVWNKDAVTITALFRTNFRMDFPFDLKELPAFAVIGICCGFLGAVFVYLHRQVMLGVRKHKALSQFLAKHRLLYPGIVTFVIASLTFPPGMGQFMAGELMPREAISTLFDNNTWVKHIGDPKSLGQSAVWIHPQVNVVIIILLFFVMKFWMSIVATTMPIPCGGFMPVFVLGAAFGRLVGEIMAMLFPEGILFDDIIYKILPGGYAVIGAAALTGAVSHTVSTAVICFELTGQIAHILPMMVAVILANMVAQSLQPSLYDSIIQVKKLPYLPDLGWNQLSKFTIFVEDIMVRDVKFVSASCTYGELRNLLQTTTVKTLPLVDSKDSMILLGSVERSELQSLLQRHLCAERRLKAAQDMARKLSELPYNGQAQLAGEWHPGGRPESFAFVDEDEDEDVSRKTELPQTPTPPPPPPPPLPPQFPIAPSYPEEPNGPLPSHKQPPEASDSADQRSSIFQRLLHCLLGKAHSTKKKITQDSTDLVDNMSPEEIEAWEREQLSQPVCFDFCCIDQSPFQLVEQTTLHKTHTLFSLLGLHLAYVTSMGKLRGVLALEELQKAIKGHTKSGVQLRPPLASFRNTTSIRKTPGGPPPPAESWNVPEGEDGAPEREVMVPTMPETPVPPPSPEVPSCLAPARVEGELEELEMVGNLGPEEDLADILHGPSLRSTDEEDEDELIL
Chain of Tyrosine-protein kinase ABL1 (Homo sapiens) (P00519 whole entry): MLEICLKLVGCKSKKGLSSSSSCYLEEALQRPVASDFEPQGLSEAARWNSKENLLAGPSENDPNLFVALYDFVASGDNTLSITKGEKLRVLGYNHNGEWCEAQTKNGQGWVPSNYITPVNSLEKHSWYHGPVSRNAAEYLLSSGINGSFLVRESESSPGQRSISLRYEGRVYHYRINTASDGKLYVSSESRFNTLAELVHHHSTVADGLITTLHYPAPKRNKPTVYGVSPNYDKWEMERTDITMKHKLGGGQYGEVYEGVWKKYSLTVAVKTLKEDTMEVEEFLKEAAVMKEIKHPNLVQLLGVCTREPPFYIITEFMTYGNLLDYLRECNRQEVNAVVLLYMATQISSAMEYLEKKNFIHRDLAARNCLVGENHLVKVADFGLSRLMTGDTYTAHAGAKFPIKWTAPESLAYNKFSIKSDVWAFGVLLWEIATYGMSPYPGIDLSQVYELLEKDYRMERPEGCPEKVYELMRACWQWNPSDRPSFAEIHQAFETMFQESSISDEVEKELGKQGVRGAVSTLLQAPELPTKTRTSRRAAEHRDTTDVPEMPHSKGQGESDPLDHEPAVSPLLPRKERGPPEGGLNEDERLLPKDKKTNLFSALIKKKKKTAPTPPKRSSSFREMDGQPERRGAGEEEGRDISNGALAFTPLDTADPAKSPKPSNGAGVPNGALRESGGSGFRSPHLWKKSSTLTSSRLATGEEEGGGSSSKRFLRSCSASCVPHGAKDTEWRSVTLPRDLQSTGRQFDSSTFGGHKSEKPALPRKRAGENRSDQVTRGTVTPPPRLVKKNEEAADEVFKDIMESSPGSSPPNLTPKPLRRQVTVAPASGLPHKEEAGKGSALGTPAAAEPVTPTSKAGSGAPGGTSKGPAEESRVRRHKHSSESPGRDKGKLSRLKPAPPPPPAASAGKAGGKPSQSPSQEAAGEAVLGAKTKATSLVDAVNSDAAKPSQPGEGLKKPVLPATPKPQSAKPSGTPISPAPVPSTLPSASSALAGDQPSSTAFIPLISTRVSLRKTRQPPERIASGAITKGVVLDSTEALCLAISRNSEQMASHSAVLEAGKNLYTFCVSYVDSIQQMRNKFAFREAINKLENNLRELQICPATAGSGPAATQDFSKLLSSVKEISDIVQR
Chain of Death-associated protein kinase 3 (Homo sapiens) (O43293 whole entry, looked up): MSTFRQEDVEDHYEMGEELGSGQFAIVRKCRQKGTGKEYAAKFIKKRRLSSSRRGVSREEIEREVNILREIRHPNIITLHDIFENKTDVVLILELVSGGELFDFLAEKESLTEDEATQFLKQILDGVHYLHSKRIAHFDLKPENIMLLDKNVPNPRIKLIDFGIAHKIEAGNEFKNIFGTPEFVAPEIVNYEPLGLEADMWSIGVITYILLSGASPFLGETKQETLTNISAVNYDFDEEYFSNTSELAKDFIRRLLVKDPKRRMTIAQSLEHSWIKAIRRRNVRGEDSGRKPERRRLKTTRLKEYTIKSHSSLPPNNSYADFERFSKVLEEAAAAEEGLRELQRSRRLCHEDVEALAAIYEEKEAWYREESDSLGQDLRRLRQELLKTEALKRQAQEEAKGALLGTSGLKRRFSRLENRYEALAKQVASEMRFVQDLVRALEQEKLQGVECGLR
Chain of Sigma non-opioid intracellular receptor 1 (Homo sapiens) (Q99720 whole entry): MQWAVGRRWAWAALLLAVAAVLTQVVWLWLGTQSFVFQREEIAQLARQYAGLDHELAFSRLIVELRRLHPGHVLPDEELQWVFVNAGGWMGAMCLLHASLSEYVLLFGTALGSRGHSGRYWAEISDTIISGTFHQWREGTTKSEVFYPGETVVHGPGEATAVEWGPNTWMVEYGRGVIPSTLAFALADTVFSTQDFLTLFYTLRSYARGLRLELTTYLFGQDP
Chain of MAP kinase-interacting serine/threonine-protein kinase 2 (Homo sapiens) (Q9HBH9 whole entry, looked up): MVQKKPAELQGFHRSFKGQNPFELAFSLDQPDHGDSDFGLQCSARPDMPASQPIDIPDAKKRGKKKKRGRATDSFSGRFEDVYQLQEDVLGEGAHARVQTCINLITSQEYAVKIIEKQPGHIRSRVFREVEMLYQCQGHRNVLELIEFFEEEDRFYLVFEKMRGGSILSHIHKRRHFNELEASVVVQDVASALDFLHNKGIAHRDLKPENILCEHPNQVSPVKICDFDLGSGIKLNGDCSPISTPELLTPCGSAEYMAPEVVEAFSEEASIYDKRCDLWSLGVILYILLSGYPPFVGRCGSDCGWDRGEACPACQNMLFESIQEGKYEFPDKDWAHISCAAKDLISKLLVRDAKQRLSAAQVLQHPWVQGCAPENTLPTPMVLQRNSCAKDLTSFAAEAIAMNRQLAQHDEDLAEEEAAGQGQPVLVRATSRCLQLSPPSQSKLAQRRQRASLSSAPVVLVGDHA
Chain of Small conductance calcium-activated potassium channel protein 1 (Rattus norvegicus) (P70606 whole entry): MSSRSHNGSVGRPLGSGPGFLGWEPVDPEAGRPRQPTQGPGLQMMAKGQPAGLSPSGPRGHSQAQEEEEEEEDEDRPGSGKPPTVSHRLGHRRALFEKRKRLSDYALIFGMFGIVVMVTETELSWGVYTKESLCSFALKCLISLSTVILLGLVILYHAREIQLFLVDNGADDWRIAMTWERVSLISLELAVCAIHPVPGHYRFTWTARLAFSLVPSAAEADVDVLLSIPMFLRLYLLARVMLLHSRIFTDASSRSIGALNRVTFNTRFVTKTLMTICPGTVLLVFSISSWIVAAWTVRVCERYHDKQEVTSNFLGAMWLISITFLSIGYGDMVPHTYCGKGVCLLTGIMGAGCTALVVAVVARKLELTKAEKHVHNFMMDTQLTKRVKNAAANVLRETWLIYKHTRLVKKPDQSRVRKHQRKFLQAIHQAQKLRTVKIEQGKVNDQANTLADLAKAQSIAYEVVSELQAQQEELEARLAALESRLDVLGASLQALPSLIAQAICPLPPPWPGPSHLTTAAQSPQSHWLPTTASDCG

CN(C)C(=O)Cn1cc(-c2nc(C3(c4ccc(-c5cnc(N)nc5)cc4)CC3)no2)cn1 [BI 0153]
inactive: [1] 100%

CN(C)C(=O)Cn1cc(-c2nc([C@@](C)(c3ccc(-c4cnc(N)nc4)cc3)C3CC3)no2)cn1 [BI 665915]
inactive: [2] 99% | [3] 96% | [4] 94.5% | [5] 99% | [6] 88% | [7] 103% | [8] 62% | [9] 88% | [10] 92.5% | [11] 99% | [12] 95% | [13] 99% | [14] 65%
